{
  "source": "patent US20060100245A1",
  "about": "“Substituted biphenyl-4-carboxylic acid arylamide analogues” (Neurogen Corporation, priority 2002, published 2006)",
  "biological_target": "T1, human capsaicin receptor (VR1) (Homo sapiens, UniProt Q8NER1)",
  "T1 construct": "transfected with the pBK-CMV expression construct encoding the full length human capsaicin receptor; expressed in transfected cells",
  "T1 sequence (Q8NER1 whole entry)": "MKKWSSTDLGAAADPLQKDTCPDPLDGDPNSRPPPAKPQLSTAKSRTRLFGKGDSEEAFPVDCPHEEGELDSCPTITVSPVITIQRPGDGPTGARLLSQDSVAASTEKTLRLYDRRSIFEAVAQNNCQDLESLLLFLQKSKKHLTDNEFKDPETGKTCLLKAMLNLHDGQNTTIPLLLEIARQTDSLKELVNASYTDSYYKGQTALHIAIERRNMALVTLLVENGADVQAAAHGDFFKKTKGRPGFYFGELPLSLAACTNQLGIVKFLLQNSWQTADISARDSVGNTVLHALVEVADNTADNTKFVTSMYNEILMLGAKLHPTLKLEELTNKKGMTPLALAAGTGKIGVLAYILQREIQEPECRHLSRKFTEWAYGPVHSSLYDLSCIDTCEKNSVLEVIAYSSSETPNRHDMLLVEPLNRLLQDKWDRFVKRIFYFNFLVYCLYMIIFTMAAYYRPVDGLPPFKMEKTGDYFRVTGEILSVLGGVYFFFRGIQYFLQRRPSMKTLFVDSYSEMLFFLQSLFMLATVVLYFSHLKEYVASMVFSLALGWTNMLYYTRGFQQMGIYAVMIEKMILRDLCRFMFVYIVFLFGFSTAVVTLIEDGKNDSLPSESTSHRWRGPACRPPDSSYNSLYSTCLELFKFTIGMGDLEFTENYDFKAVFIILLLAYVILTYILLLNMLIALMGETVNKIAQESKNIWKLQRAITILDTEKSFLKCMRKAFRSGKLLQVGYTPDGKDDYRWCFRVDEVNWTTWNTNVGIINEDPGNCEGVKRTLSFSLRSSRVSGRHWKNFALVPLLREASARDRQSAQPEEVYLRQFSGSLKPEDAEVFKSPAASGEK",
  "assay": "Capsaicin receptor binding assay ([3H]RTX competition)",
  "summary_of_the_method": "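Membranes from HEK293 cells stably expressing full-length human VR1; competition against 60 pM [3H]RTX, 60 min at 37 °C in HEPES/sucrose buffer pH 7.4 with 0.25 mg/ml BSA. Non-specific binding defined with 1 μM unlabelled RTX; alpha1-acid glycoprotein added after termination on ice.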",
  "note": "Where two headings read alike, the source gives them in different places.",
  "data": [
    {"smiles": "CCCc1ccc(NC(=O)c2ccc(-c3ccccc3C)nc2)cc1", "note": "[Compound 389, N-(4-Propyl-phenyl)-6-o-tolyl-nicotinamide]", "values": [
      {"measurement": "Ki", "setting": "read-out: Ki", "value": "< 1000", "unit": "nM"}
    ]},
    {"smiles": "CC(C)(C)c1ccc(NC(=O)c2ccc(-c3ccccn3)cc2)cc1", "note": "[Compound 430, N-(4-tert-Butyl-phenyl)-4-pyridin-2-yl-benzamide]", "values": [
      {"measurement": "Ki", "setting": "read-out: Ki", "value": "< 1000", "unit": "nM"}
    ]},
    {"smiles": "CCCc1ccc(NC(=O)c2ccc(-c3ccccc3F)nc2)cc1", "note": "[Compound 91, 6-(2-Fluoro-phenyl)-N-(4-propyl-phenyl)-nicotinamide]", "values": [
      {"measurement": "Ki", "setting": "read-out: Ki", "value": "< 1000", "unit": "nM"}
    ]},
    {"smiles": "CCC1(c2ccc(NC(=O)c3ccc(-c4ncccc4F)cc3)cc2)CCC(=O)NC1=O", "note": "(stereo not shown) [Compound 458, N-[4-(3-Ethyl-2,6-dioxo-piperidin-3-yl)-phenyl]-4-(3-fluoro-pyridin-2-yl)-benzamide]", "values": [
      {"measurement": "Ki", "value": "< 1000", "unit": "nM"}
    ]},
    {"smiles": "O=C(Nc1ccc(Br)c(Cl)c1)c1ccc(-c2cccc(F)c2)nc1", "note": "[Compound 318, N-(4-Bromo-3-chloro-phenyl)-6-(3-fluoro-phenyl)-nicotinamide]", "values": [
      {"measurement": "Ki", "setting": "read-out: Ki", "value": "< 1000", "unit": "nM"}
    ]},
    {"smiles": "CC(C)c1cccc(-c2ccc(C(=O)Nc3ccc4c(c3)OCCO4)cn2)c1", "note": "[Compound 196, N-(2,3-Dihydro-benzo[1,4]dioxin-6-yl)-6-(3-isopropyl-phenyl)-nicotinamide]", "values": [
      {"measurement": "Ki", "setting": "read-out: Ki", "value": "< 1000", "unit": "nM"}
    ]},
    {"smiles": "CC(C)(C)c1ccc(NC(=O)c2cnc(-c3ccccc3Cl)cn2)cc1", "note": "[Compound 39, 5-(2-Chloro-phenyl)-pyrazine-2-carboxylic acid (4-tert-butyl-phenyl)-amide]", "values": [
      {"measurement": "Ki", "setting": "read-out: Ki", "value": "< 1000", "unit": "nM"}
    ]},
    {"smiles": "O=C(Nc1ccc2c(c1)OCCCO2)c1ccc(-c2cccc(F)c2)nc1", "note": "[Compound 220, N-(3,4-Dihydro-2H-benzo[b][1,4]dioxepin-7-yl)-6-(3-fluoro-phenyl)-nicotinamide]", "values": [
      {"measurement": "Ki", "setting": "read-out: Ki", "value": "< 1000", "unit": "nM"}
    ]},
    {"smiles": "CC(C)(C)c1ccc(NC(=O)c2ccc(-c3ncccc3CN3CCCC3)cc2)cc1", "note": "[Compound 420, N-(4-tert-Butyl-phenyl)-4-(3-pyrrolidin-1-ylmethyl-pyridin-2-yl)-benzamide]", "values": [
      {"measurement": "Ki", "setting": "read-out: Ki", "value": "< 1000", "unit": "nM"}
    ]},
    {"smiles": "CCS(=O)(=O)Nc1cccnc1-c1ccc(C(=O)Nc2ccc(C(C)(C)C)cc2)cc1", "note": "[Compound 408, N-(4-tert-Butyl-phenyl)-4-(3-ethanesulfonylamino-pyridin-2-yl)-benzamide]", "values": [
      {"measurement": "Ki", "setting": "read-out: Ki", "value": "< 1000", "unit": "nM"}
    ]},
    {"smiles": "CCOc1cccc(-c2ccc(C(=O)Nc3ccc4c(c3)OCCO4)cn2)c1", "note": "[Compound 194, N-(2,3-Dihydro-benzo[1,4]dioxin-6-yl)-6-(3-ethoxy-phenyl)-nicotinamide]", "values": [
      {"measurement": "Ki", "setting": "read-out: Ki", "value": "< 1000", "unit": "nM"}
    ]},
    {"smiles": "CCCCc1ccc(-c2ccc(C(=O)Nc3cccc(OC)c3)cn2)cc1", "note": "[Compound 137, 6-(4-Butyl-phenyl)-N-(3-methoxy-phenyl)-nicotinamide]", "values": [
      {"measurement": "Ki", "setting": "read-out: Ki", "value": "< 1000", "unit": "nM"}
    ]},
    {"smiles": "CC(C)(C)c1ccc(NC(=O)c2ccc(-c3ccccn3)nc2)cc1", "note": "[Compound 9, [2,2′]Bipyridinyl-5-carboxylic acid (4-tert-butyl-phenyl)-amide]", "values": [
      {"measurement": "Ki", "setting": "read-out: Ki", "value": "< 1000", "unit": "nM"}
    ]},
    {"smiles": "CC(C)(C)c1ccc(NC(=O)c2ccc(-c3ncccc3C=O)cc2)cc1", "note": "[Compound 410, N-(4-tert-Butyl-phenyl)-4-(3-formyl-pyridin-2-yl)-benzamide]", "values": [
      {"measurement": "Ki", "setting": "read-out: Ki", "value": "< 1000", "unit": "nM"}
    ]},
    {"smiles": "Cc1nc2cc(NC(=O)c3ccc(-c4ccccc4)nc3)ccc2s1", "note": "[Compound 209, N-(2-Methyl-benzothiazol-5-yl)-6-phenyl-nicotinamide]", "values": [
      {"measurement": "Ki", "setting": "read-out: Ki", "value": "< 1000", "unit": "nM"}
    ]},
    {"smiles": "CC(C)c1cccc(-c2ccc(C(=O)Nc3ccc4c(c3)OCCCO4)cn2)c1", "note": "[Compound 221, N-(3,4-Dihydro-2H-benzo[b][1,4]dioxepin-7-yl)-6-(3-isopropyl-phenyl)-nicotinamide]", "values": [
      {"measurement": "Ki", "setting": "read-out: Ki", "value": "< 1000", "unit": "nM"}
    ]},
    {"smiles": "CC(C)(C)c1ccc(NC(=O)c2ccc(-c3ncccc3NS(=O)(=O)Cc3ccccc3)cc2)cc1", "note": "[Compound 417, N-(4-tert-Butyl-phenyl)-4-(3-phenylinethanesulfonylamino-pyridin-2-yl)-benzamide]", "values": [
      {"measurement": "Ki", "setting": "read-out: Ki", "value": "< 1000", "unit": "nM"}
    ]},
    {"smiles": "Cc1cccc(-c2ccc(C(=O)Nc3ccc(C(C)C)cc3)cn2)c1", "note": "[Compound 383, N-(4-Isopropyl-phenyl)-6-m-tolyl-nicotinamide]", "values": [
      {"measurement": "Ki", "setting": "read-out: Ki", "value": "< 1000", "unit": "nM"}
    ]},
    {"smiles": "O=C(Nc1ccc(C(F)(F)F)cc1)c1ccc(-c2ncccc2[N+](=O)[O-])cc1", "note": "[Compound 36, 4-(3-Nitro-pyridin-2-yl)-N-(4-trifluoromethyl-phenyl)-benzamide]", "values": [
      {"measurement": "Ki", "setting": "read-out: Ki", "value": "< 1000", "unit": "nM"}
    ]},
    {"smiles": "O=C(Nc1ccc2c(c1)OCCCO2)c1ccc(-c2ccccc2)nc1", "note": "[Compound 230, N-(3,4-Dihydro-2H-benzo[b][1,4]dioxepin-7-yl)-6-phenyl-nicotinamide]", "values": [
      {"measurement": "Ki", "setting": "read-out: Ki", "value": "< 1000", "unit": "nM"}
    ]},
    {"smiles": "COCC(C)(C)c1ccc(NC(=O)c2ccc(-c3ncccc3Cl)cc2)cc1", "note": "[Compound 31, 4-(3-Chloro-pyridin-2-yl)-N-[4-(2-methoxy-1,1-dimethyl-ethyl)-phenyl]-benzamide]", "values": [
      {"measurement": "Ki", "setting": "read-out: Ki", "value": "< 1000", "unit": "nM"}
    ]},
    {"smiles": "CCCCc1ccc(NC(=O)c2ccc(-c3ccccc3C)nc2)cc1", "note": "[Compound 343, N-(4-Butyl-phenyl)-6-o-tolyl-nicotinamide]", "values": [
      {"measurement": "Ki", "setting": "read-out: Ki", "value": "< 1000", "unit": "nM"}
    ]},
    {"smiles": "CC(C)(C)c1ccc(NC(=O)c2ccc(-c3ccccc3Cl)cn2)cc1", "note": "[Compound 40, 5-(2-Chloro-phenyl)-pyridine-2-carboxylic acid (4-tert-butyl-phenyl)-amide]", "values": [
      {"measurement": "Ki", "setting": "read-out: Ki", "value": "< 1000", "unit": "nM"}
    ]},
    {"smiles": "CCCNc1cccnc1-c1ccc(C(=O)Nc2ccc(C(C)(C)C)cc2)cc1", "note": "[Compound 419, N-(4-tert-Butyl-phenyl)-4-(3-propylamino-pyridin-2-yl)-benzamide]", "values": [
      {"measurement": "Ki", "setting": "read-out: Ki", "value": "< 1000", "unit": "nM"}
    ]},
    {"smiles": "O=C(Nc1ccc2c(c1)CCC2)c1ccc(-c2cccc(F)c2)nc1", "note": "[Compound 129, 6-(3-Fluoro-phenyl)-N-indan-5-yl-nicotinamide]", "values": [
      {"measurement": "Ki", "setting": "read-out: Ki", "value": "< 1000", "unit": "nM"}
    ]},
    {"smiles": "CC(C)(C)c1ccc(NC(=O)c2ccc(-c3ccccc3[N+](=O)[O-])nc2)cc1", "note": "[Compound 446, N-(4-tert-Butyl-phenyl)-6-(2-nitro-phenyl)-nicotinamide]", "values": [
      {"measurement": "Ki", "setting": "read-out: Ki", "value": "< 1000", "unit": "nM"}
    ]},
    {"smiles": "CC(C)(C)c1ccc(NC(=O)c2ccc(-c3cccnc3)cc2)cc1", "note": "[Compound 431, N-(4-tert-Butyl-phenyl)-4-pyridin-3-yl-benzamide]", "values": [
      {"measurement": "Ki", "setting": "read-out: Ki", "value": "< 1000", "unit": "nM"}
    ]},
    {"smiles": "CC(=O)N1CCCCC1c1ccc(C(=O)Nc2ccc(C(C)(C)C)cc2)cc1", "note": "(stereo not shown) [Compound 22, 4-(1-Acetyl-piperidin-2-yl)-N-(4-tert-butyl-phenyl)-benzamide]", "values": [
      {"measurement": "Ki", "setting": "read-out: Ki", "value": "< 1000", "unit": "nM"}
    ]},
    {"smiles": "CC(C)(C)c1ccc(NC(=O)c2ccc(-c3ccc(O)cc3)nc2)cc1", "note": "[Compound 450, N-(4-tert-Butyl-phenyl)-6-(4-hydroxy-phenyl)-nicotinamide]", "values": [
      {"measurement": "Ki", "setting": "read-out: Ki", "value": "< 1000", "unit": "nM"}
    ]},
    {"smiles": "COc1ccc(NC(=O)c2ccc(-c3ccccc3F)nc2)cc1OC", "note": "[Compound 232, N-(3,4-Dimethoxy-phenyl)-6-(2-fluoro-phenyl)-nicotinamide]", "values": [
      {"measurement": "Ki", "setting": "read-out: Ki", "value": "< 1000", "unit": "nM"}
    ]},
    {"smiles": "CC(C)(O)c1ccc(NC(=O)c2ccc(-c3ncccc3Cl)cc2)cc1", "note": "[Compound 29, 4-(3-Chloro-pyridin-2-yl)-N-[4-(1-hydroxy-1-methyl-ethyl)-phenyl]-benzamide]", "values": [
      {"measurement": "Ki", "setting": "read-out: Ki", "value": "< 1000", "unit": "nM"}
    ]},
    {"smiles": "Nc1cc(-c2ncccc2C(F)(F)F)ccc1C(=O)Nc1ccc(C(F)(F)F)nc1", "note": "[Compound 14, 2-Amino-N-(6-trifluoromethyl-pyridin-3-yl)-4-(3-trifluoromethyl-pyridin-2-yl)-benzamide]", "values": [
      {"measurement": "Ki", "setting": "read-out: Ki", "value": "< 1000", "unit": "nM"}
    ]},
    {"smiles": "CCc1ccc(NC(=O)c2ccc(-c3ccccc3F)nc2)cc1", "note": "[Compound 365, N-(4-Ethyl-phenyl)-6-(2-fluoro-phenyl)-nicotinamide]", "values": [
      {"measurement": "Ki", "setting": "read-out: Ki", "value": "< 1000", "unit": "nM"}
    ]},
    {"smiles": "CC(C)(C)c1ccc(NC(=O)c2ccc(-c3ccccc3Cl)nc2)cc1", "note": "[Compound 442, N-(4-tert-Butyl-phenyl)-6-(2-chloro-phenyl)-nicotinamide]", "values": [
      {"measurement": "Ki", "setting": "read-out: Ki", "value": "< 1000", "unit": "nM"}
    ]}
  ]
}
